Several values for one entry are separate records, joined by “and”; a condition that tells them apart may be missing. Identical values can stand only once. Like-named read-outs stand apart in the source and are kept apart here. Blank lines part the entries; values can stand above or below the molecule they belong to.
Tests used:
TPA-induced ear edema = TPA-induced ear edema model; type: in vivo, mouse; conditions: TPA 0.01%, ear thickness 6 hours after TPA
Protocol: Experiment: Three representative compounds, 5-(2-phenylethenyl)-2-1-propyl-1,3-benzenediol, as previously reported, a closely related stilbene derivative (WO 0142231) and compound 39B, a novel compound of the current invention, were assayed against the edema on female mice (Balb/c) aged 10-12 weeks, using 0.01% Calcitriol (a commercial standard) as a positive control. Phorbol-12-myristate-13-acetate (TPA) was used as the edema inducer. TPA and the test compounds were all dissolved in 100% ethanol and 20 μl applied on the right ear of the mouse with six mice per group. The TPA concentration used was 0.01% (w/v). Ear thickness was measured 6 hours after TPA treatment to determine if edema was decreased. In each experiment replicated groups of TPA treated mice were treated with either 5-(2-phenylethenyl)-2-1-propyl-1,3-benzenediol, Calcitriol, compound 39B or only ethanol, and the level of inhibition was obtained by measuring the thickness of the ear and expressing the difference in thickness of the treated ear from that of the ethanol treated ear, as a percentage.

IFN-γ = IFN-γ production by PHA-stimulated human PBMC (ELISA); type: cell-based; conditions: for IC50: PHA-stimulated human PBMC, supernatant after 48 hours, ELISA
Protocol: (§1) (a). Effect on proliferation and IFN-γ production of human peripheral blood mononuclear cells (PBMC) stimulated by phytochemagglutinin (PHA).
(§2) Experiment: PBMC were cultured with PHA and cultured with titrated concentrations of compounds or solvent, or media alone using standard cell culture techniques. The MTT assay was performed after 48 hours of culture. Supernatants were collected after 48 hours of culture and levels of IFN-γ were assayed by ELISA.

human PBMC = assay: Proliferation of PHA-stimulated human PBMC (MTT); type: cell-based; conditions: for IC50: MTT after 48 hours
Protocol: as §1, §2

Human keratinocytes = assay: Human keratinocyte proliferation (MTT); type: cell-based; conditions: for IC50: Homo sapiens, Keratinocyte, in the presence of IFN-γ, MTT after 48 hours
Protocol: Human keratinocytes were cultured in the presence of IFN-γ and titrated concentrations of drug or the vehicle. The MTT assay was performed after 48 hours of culture.

TNF-α = assay: Endotoxemia mouse model, serum TNF-α after LPS; type: in vivo; conditions: for TNF-α levels in mice blood induced by LPS: P<0.05; for TNF-α: serum 150 min after LPS 40 mg/kg IP, compounds 25 mg/kg then 3 x 12.5 mg/kg IP (dexamethasone 0.4 then 3 x 0.2 mg/kg)
Description: The in vivo endotoxemia model used in these studies represents a mouse showing the early inflammatory response. Such severe infection can be caused by Gram negative bacteria may lead to the development of septic shock. This toxicity is caused by the lipopolysaccharide (LPS) component of the bacterial cell wall, and injection of LPS into mice can mimic the physiological response typical of the septic shock syndrome. LPS-mediated toxicity is due to the release of cytokines such as TNF-α, IL-1 and IFN-γ by activated macrophages, and the degree of toxicity can be measured by the level of these cytokines in the blood.
Experiment: Test compounds were dissolved and formulated in 50% PEG-400 in water. Female Balb/c mice (˜20 g) were first injected separately intraperitoneally (IP) with 25 mg/kg of each test compound, then challenged by injection with 40 mg/kg lipopolysaccharide (LPS) (IP) 30 minutes later. One drug injection with 12.5 mg/kg of test compound was done at the same time as (LPS challenge and two subsequent sequential injections at 30 minutes intervals. Positive control of dexamethasone was administered in a similar manner starting at 0.4 mg/kg and subsequently 0.2 mg/kg for three additional injections. Mice were sacrificed and blood collected by cardiac puncture 150 minutes after LPS challenge. The serum TNF-α levels were determined by ELISA. Each test group was comprised of six mice. Group of mice injected with the vehicle alone was used as negative control.

VEGF = VEGF protein expression of keratinocytes induced by rhTGF-α (ELISA); type: cell-based, human; conditions: for VEGF: supernatant, rhTGF-α 100 ng/ml, 24 h
Protocol: Experiment: Compound 39B was dissolved in DMSO, diluted with keratinocyte-serum-free medium (KC-SFM) to 10^3 μg/ml, further diluted with the culture medium and tested at the following concentrations: 10, 1, 0.1 and 0.01 μg/ml. Prime cultures of keratinocytes were obtained from a commercial source and maintained with KC-SFM at a cell density of 10^6/ml. In the test, cells were cultured in 24-well plates and incubated at 37° C. in 5% CO2 first for 4 h, and then treated with rhTGF-α (final concentration 100 ng/ml) and the test compound at different concentrations (0.01-10 μg/ml). Medium without test compound was the negative control. The culture supernatant from each well was separately collected after an additional 24 h incubation and centrifuged at 2000 rpm for 5 minutes before measuring the VEGF concentration. VEGF concentration in the supernatant in each well was calculated based on measurements taken using an ELISA kit, according to the manufacturer's instructions.

[1] = test system: human white blood cells (WBC); assay: Migration of human white blood cells induced by leukotriene B4 (agarose plate); type: cell-based; conditions: for % Migration: towards LTB4, 5 h
Protocol: Experiment: WBC collected from donors was mixed with equal volume of 3% dextran (in 0.15M NaCl). The red blood cells were sedimented (45 minutes, room temperature) and removed. Any remaining red blood cells in the plasma were removed by adding 150 mM of Tris-NH4Cl. The leukocyte-rich plasma was washed twice in Hanks balanced salts solution containing 20 mM HEPES. The WBC was then transferred to RPMI-1640 medium and adjusted to a density of 5×10^7 cells/ml. An agarose plate assay system (Nelson et al. 1978) was used to measure the WBC migration. Briefly, a 0.8% agarose solution was prepared with complete RPMI-1640 cell culture medium. About 3.5 ml of this agarose solution was transferred to a glass slide before it solidified. Wells were made on the slide in a 3×6 array fashion (02 mm, inter-well distance 3 mm) once the agarose had solidified. LTB4 was dissolved in anhydrous ethanol to 104 ng/ml and further diluted with the RPMI-1640 medium to 10 ng/ml for the test. Compound 39B was dissolved in DMSO, diluted with RPMI-1640 to 10^3 μg/ml and tested at the following concentrations: 100, 10, 1, 0.1 and 0.01 μg/ml. Ten microlitres of cell suspension with different concentrations of compound 39B was added to each well of the center row of the three rows of wells. The same volume of LTB4 in RPMI-1640 medium or the medium alone was added to wells in the other rows and served as controls. After 5 h incubation (5% CO2, 37° C.) the test slides were fixed with 100% methanol (30 min) and dried at 4° C. (overnight). The slides were then examined microscopically. The migration index was defined as the average distances that cells migrated towards the positive LTB4 well divided by that of spontaneous migration. The percentage migration was compared between treatment and the non-drug control. The dose-effect relationship was determined by plotting the percentage chemotaxis vs concentration for IC50 values.

DSS-induced IBD = assay: DSS (2%) IBD mouse model, preventive experiment; type: in vivo; conditions: 500 mg/kg/day oral with 2% DSS, day 7
Protocol: To assess the in vivo efficacy for preventive and therapeutic activities of these compounds on IBD, two experiments were designed and tested using the dextran sulfate sodium (DSS) experimental mouse model for human IBD. For the preventive experiment, compounds 9A and 39B were simultaneously administrated orally with 2% DSS at the dose of 500 mg/kg/day. Vehicle alone and glucocorticoid (dexamethasone 20 mg/kg/day) were used as controls. At day 7, mice were sacrificed, examined for stool appearance, diarrhea and colon macroscopic damage including ulceration, inflammation and adhesion. Colon samples were also taken and fixed in 10% formalin for histological assessment of architecture, ulceration, inflammation and serosal damage.

[2] = test system: acute colon inflammation induced by 5% DSS; assay: DSS (5%) acute colon inflammation mouse model, therapeutic experiment; type: in vivo
Description: To assess the in vivo efficacy for preventive and therapeutic activities of these compounds on IBD, two experiments were designed and tested using the dextran sulfate sodium (DSS) experimental mouse model for human IBD.
For the therapeutic experiment a further experiment was done to test different doses of 9A on severe, acute intestinal inflammation in mice induced by a high dose of DSS (5%). In this experiment, drug treatment started from day 3 post DSS induction when disease symptom was established. 9A (200 mg/kg or 100 mg/kg) was administered through oral […] once daily and a commercial drug, sulfasalazine (SASP, 100 mg/kg/day) was used as positive control. Experiment was terminated at day 7 and the efficacy was assessed.

[3] = Homo sapiens, PBMC, PHA-stimulated, read-out: IC50 against human PBMC proliferation
[4] = Homo sapiens, PBMC, PHA-stimulated, read-out: IC50 against human PBMC proliferation (unit inferred)
[5] = PHA-stimulated, read-out: IC50 against human PBMC proliferation

Structure (SMILES): C=C1/C(=C\C=C2/CCC[C@]3(C)[C@@H]([C@H](C)CCCC(C)(C)O)CC[C@@H]23)C[C@@H](O)C[C@@H]1O [Calcitriol, reference compound]
% edema inhibition (TPA-induced ear edema; 0.01% single topical): 31% and 31.2%

Structure (SMILES): COc1cc(/C=C/c2ccccc2)cc(OC)c1C(C)C [Compound 8A, 3,5-Dimethoxy-4-isopropyl-trans-stilbene]
melting point: 64 to 66 °C

Structure (SMILES): CCc1c(OC)cc(/C=C/c2ccccc2)cc1OC [Compound 15A-a, 3,5-Dimethoxy-4-ethyl-trans-stilbene]
melting point: 70 to 73 °C

Structure (SMILES): CCCCCCCCCCCCCCc1c(OC)cc(/C=C/c2ccccc2)cc1OC [Compound 15A-b, 3,5-Dimethoxy-4-myristyl-trans-stilbene]
melting point: 68 to 70 °C

Structure (SMILES): CCc1c(O)cc(/C=C/c2ccccc2)cc1O [Compound 16A-a, 3,5-Dihydroxy-4-ethyl-trans-stilbene]
melting point: 143 to 146 °C

Structure (SMILES): CCCCCCCCCCCCCCc1c(O)cc(/C=C/c2ccccc2)cc1O [Compound 16A-b, 3,5-Dihydroxy-4-myristyl-trans-stilbene]
melting point: 125 to 128 °C

Structure (SMILES): C[C@@H]1C[C@H]2[C@@H]3CCC4=CC(=O)C=C[C@]4(C)[C@@]3(F)[C@@H](O)C[C@]2(C)[C@@]1(O)C(=O)CO [Dexamethasone, dexamethasone, reference compound]
TNF-α (TNF-α): 281.3 ± 67.2 pg/mL

Structure (SMILES): Oc1ccc(C=Cc2cc(O)cc(O)c2)cc1 [Resveratrol, resveratrol, reference compound]
IC50 (IFN-γ): 39.2 µM
IC50 (human PBMC; [3]): > 50 µM
IC50 (human PBMC; [4]): > 50 µM
IC50 against human PBMC proliferation (human PBMC; PHA-stimulated, 50 the highest concentration tested): > 50 µM
IC50 (Human keratinocytes): > 50 µM

Structure (SMILES): O=C(O)c1cc(/N=N/c2ccc(S(=O)(=O)Nc3ccccn3)cc2)ccc1O [SASP, sulfasalazine, reference compound]
Bleeding score ([2]; 100 mg/kg oral daily, day seven, mean ± SEM, n = 9, 1 = normal, 2 = bloody stool, 4 = gross bleeding): 3.6 ± 0.24
Diarrheal score ([2]; 100 mg/kg oral daily, day seven, mean ± SEM, n = 9, 1 = normal, 2 = loose stools, 4 = diarrhea): 2.8 ± 0.49
survival rate vs control treatment ([2]; 5% DSS, treatment from day 3): significantly higher survival rate

Second part, led by results:

IC50 (IFN-γ): 2.55 µM
Structure (SMILES): CCCc1c(O)cc(C=Cc2ccc(O)cc2)cc1O [Compound 13B, 5-[2-(4-Hydroxyphenyl)ethenyl]-2-1-propyl-1,3-benzenediol]
potency in inhibiting IFN-γ production relative to resveratrol (IFN-γ): more than 15 times
potency in inhibiting PBMC proliferation relative to resveratrol (human PBMC): 20 times
IC50 (human PBMC; [3]): 2.97 µM
IC50 (human PBMC; [4]): 2.97 µM
potency on keratinocyte proliferation relative to resveratrol (Human keratinocytes): more than 10 times
IC50 (Human keratinocytes): 4.3 µM

melting point: 149 to 152 °C
Structure (SMILES): COc1cc(/C=C/c2ccccc2)cc(OC)c1Br [Compound 14A, 3,5-Dimethoxy-4-bromo-trans-stilbene]

IC50 (IFN-γ): 3.8 µM
Structure (SMILES): CCCc1c(O)cc(C=Cc2ccccc2F)cc1O [Compound 37B, 5-[2-(2-Fluorophenyl)ethenyl]-2-1-propyl-1,3-benzenediol]
IC50 (human PBMC; [3]): 5.62 µM
TNF-α levels in mice blood induced by LPS (TNF-α): decreased significantly
TNF-α (TNF-α): 638.9 ± 273.0 pg/mL

IC50 (IFN-γ): 4.29 µM
Structure (SMILES): CC(C)c1c(O)cc(C=Cc2cccc(F)c2)cc1O [Compound 38B, 5-[2-(3-Fluorophenyl)ethenyl]-2-1-propylphenyl-1,3-diol]
IC50 (human PBMC; [5]): 9.91 µM

IC50 (IFN-γ): 4.16 µM
Structure (SMILES): CC(C)c1c(O)cc(C=Cc2ccc(F)cc2)cc1O [Compound 39B]
IC50 (human PBMC; [5]): 7.36 µM
% edema inhibition (TPA-induced ear edema; 0.3% single topical): 85% and 85.2%
VEGF (VEGF; 1.6 μM): 34.4 ± 2.0 pg/mL
VEGF (VEGF; 8 μM): 33.6 ± 1.8 pg/mL
decrease of VEGF protein concentration (VEGF; 40 μM, 24-h treatment): 100%
VEGF (VEGF; 40 μM): 0 ± 0 pg/mL
inhibition of migration of WBC towards LTB4 [1]: dose-dependent manner
% Migration ([1]; 0.32 μM): 88.46 ± 18.6%
% Migration ([1]; 1.6 μM): 83.85 ± 15.9%
% Migration ([1]; 8 μM): 58.46 ± 4.3%
% Migration ([1]; 40 μM): 13.07 ± 5.8%
TNF-α levels in mice blood induced by LPS (TNF-α): decreased significantly
TNF-α (TNF-α): 601.6 ± 211.9 pg/mL
macroscopic and microscopic diseases scores (DSS-induced IBD): significantly decreased

Reference: patent US7868047B2, “Anti-inflammatory and psoriasis treatment and protein kinase inhibition by hydroxy stilbenes and novel stilbene derivatives and analogues” (Welichem Biotech Inc., priority 1999, dated 2011)
